Measured values: US12611395B2, “Use of carbamate compound for preventing or treating trigeminal neuralgia” (SK BIOPHARMACEUTICALS CO., LTD., priority 2016, dated 2026)

Legend:
[1] = patients treated for trigeminal neuralgia; cited from earlier work
[2] = tested on: rats in which facial pain was induced by inferior alveolar nerve injury; assay: Air-puff test of mechanical allodynia in rats with facial pain induced by inferior alveolar nerve injury; assay type: in vivo, rats (Sprague-Dawley); conditions: rat; for analgesic effect on mechanical allodynia induced by inferior alveolar nerve injury: FIG. 4
Method: (§1) Mature male rats (Sprague-Dawley, 200-230 g) were used. The experimental animals were maintained under conditions of light-and-darkness cycle of 12 hours, a temperature of 22 to 25° C., a relative humidity of 40 to 60%, and free access to water and food.
(§2) To observe the behavioral response, the animals were placed in a cage and adapted for 20 minutes in a quiet area, followed by an air-puff test to assess mechanical allodynia to air stimulation. Aggressive behaviors such as head movement to avoid air stimulation or biting in response to the air stimulation applied to the facial region which is dominated by the trigeminal nerve were used as evaluation criteria for the behavioral reflex. A total of 10 trials and 50% or more responses were considered as the threshold of stimulation.
(§3) On the 7th day after surgery, the test compound (5, 10 and 20 mg/kg) and carbamazepine (25 and 50 mg/kg) were intraperitoneally administered to the test animals in which allodynia had been induced. At 30 minutes, 60 minutes, 90 minutes, 2 hours, 3 hours, 4 hours and 6 hours after administration, the pharmacological effects of the drugs were evaluated by observing changes in the behavioral responses.
(§4) The effect of the compounds was expressed as mean±standard error, and statistical significance was recognized when data were p<0.05 difference using one-way ANOVA and Dunnett's test.

[3] = tested on: rats in which trigeminal neuralgia was induced by the trigeminal nerve root compression; assay: Air-puff test of mechanical allodynia in rats with trigeminal neuralgia induced by trigeminal nerve root compression; assay type: in vivo, rats (Sprague-Dawley); conditions: rat; for analgesic effect on mechanical allodynia induced by trigeminal nerve root compression: FIG. 2
Method: as §1
Rats were anesthetized with a mixed solution of ketamine (40 mg/kg) and xylazine (4 mg/kg), fixed on a stereotaxic instrument, and 4% agar solution was injected into the left trigeminal nerve roots using a stainless steel injection tube to compress the trigeminal nerve roots. 10 μl of 4% agar solution was slowly injected over the trigeminal nerve roots for 5 seconds, and the injection tube was removed after 5 minutes and then sutured (Jeon H J. et. al., A novel trigeminal neuropathic pain model: compression of the trigeminal nerve root produces prolonged nociception in rats, Prog Neuropsychopharmacol Biol Psychiatry. 2012).
as §2
as §3, with “(10, 30” for “(5, 10”, “50” for “20”
as §4

[4] = tested on: formalin-induced pain behavioral response in rats; assay: Formalin-induced facial pain behavioral response in rats; assay type: in vivo, rats (Sprague-Dawley); conditions: 5 and 20 mg/kg intraperitoneal 30 minutes before 5% formalin, rat, FIG. 5
Method: as §1
5% Formalin (50 μl) was injected subcutaneously into the vibrissa pad on the left facial area of the rats using an insulin syringe (31 gauge). The behavioral response of rubbing or scratching the maxillofacial area was observed from 10 minutes after injection, accumulating in a unit of 5 minutes, for a total of 35 minutes (Park M K. et. al., Peripheral administration of NR2 antagonists attenuates orofacial formalin-induced nociceptive behavior in rats, Prog Neuropsychopharmacol Biol Psychiatry, 2011).
The vehicle, the test compound (5 and 20 mg/kg) and carbamazepine (25 mg/kg) were intraperitoneally administered, and after 30 minutes 5% formalin was injected into the left facial area.
as §4

[5] = overall conclusion, intraperitoneal
[6] = 30 and 50 mg/kg intraperitoneal

Row | SMILES | patients with side effects drowsiness, ataxia, nausea and anorexia [1] | analgesic effect on mechanical allodynia induced by inferior alveolar nerve injury ([2]; 25 mg/kg intraperitoneal) | time after administration at which the analgesic effect completely disappeared ([2]; 50 mg/kg intraperitoneal) [h] | analgesic effect on mechanical allodynia induced by inferior alveolar nerve injury ([2]; 50 mg/kg intraperitoneal) | analgesic effect on mechanical allodynia induced by trigeminal nerve root compression ([3]; 25 mg/kg intraperitoneal) | analgesic effect on mechanical allodynia induced by trigeminal nerve root compression ([3]; 50 mg/kg intraperitoneal) | pain behavioral response as compared with the vehicle-administered group [4] | time after administration from which significant pain-relieving effect was observed ([2]; 20 mg/kg intraperitoneal) [min] | time for which pain-relieving effect was maintained ([2]; 20 mg/kg intraperitoneal) [h] | inhibition of mechanical allodynia induced by inferior alveolar nerve injury ([2]; 5, 10 and 20 mg/kg intraperitoneal, 7th day after surgery, FIG. 3) | time after administration from which the effect was significant ([2]; 5 and 10 mg/kg intraperitoneal) [min] | time after administration up to which the effect was significant ([2]; 5 and 10 mg/kg intraperitoneal) [h] | analgesic action in the inferior alveolar nerve injury-induced facial pain model compared with carbamazepine [2, 5] | inhibition of mechanical allodynia induced by trigeminal nerve root compression ([3]; 30 and 50 mg/kg intraperitoneal, 7th day after surgery, FIG. 1) | time after administration for which analgesic effect was maintained [3, 6] [h] | time after administration from which analgesic effect could be observed [3, 6] [min] | analgesic action in the trigeminal neuralgia animal model compared with carbamazepine [3, 5]
1 | NC(=O)N1c2ccccc2C=Cc2ccccc21 [carbamazepine, reference compound] | about 40% | no analgesic effect | 2 | significant analgesic effect | no analgesic effect | transient low analgesic effect |  |  |  |  |  |  |  |  |  |  | 
2 | NC(=O)O[C@@H](Cn1ncnn1)c1ccccc1Cl [test compound] |  |  |  |  |  |  | statistically significant decrease | 90 | 4 | significantly inhibited | 90 | 2 | equivalent to or greater than carbamazepine | significantly inhibited | 6 | 60 | better analgesic action than carbamazepine
